{
  "source": "patent US20250072423A1",
  "about": "“THIOPHENE ACETIC ACID FOR PLANT GROWTH REGULATION” (priority 2023, published 2025)",
  "key": {"tobacco leaf explants": {"tested_on": "tobacco leaf explants", "experiment": "Shoot organogenesis from tobacco leaf explants in vitro (Experiment 4)", "type": "cell-based, Nicotiana tabacum L. cv. Petit Havana SRI", "details": "8 weeks"}, "WT Arabidopsis seedlings": {"tested_on": "WT Arabidopsis seedlings", "experiment": "Root growth of WT Arabidopsis seedlings (Experiment 6)", "type": "in vivo, A. thaliana", "method": "(§1) Arabidopsis Columbia-0 wild type (WT) was used for assessing the effect of TAA on root growth and its effects on the expression of auxin-responsive genes. Seeds of A. thaliana were surface sterilized by suspending in 70% ethanol for 1 minute, followed by treatment with 10% bleach for 20 minutes. After thorough washing with sterile distilled water, the sterilized seeds were plated onto germination medium (half-strength Murashige and Skoog basal medium with vitamins (1/2 MS) medium supplemented with 1% sucrose and 0.7% plant agar) for germination. Germination was initiated by incubating the seeds in darkness at 5° C. for 2 days, followed by transfer to a light environment at 22° C. with a photoperiod of 16-h light/8-h dark for further growth. Stock solutions of TAA were prepared in DMSO (dimethyl sulfoxide). In control treatments, DMSO was used in equal amounts as present in the greatest concentration of TAA tested.\nTo analyze the effect of TAA on root growth, WT Arabidopsis seedlings were germinated as described and uniform-looking 8-day-old seedlings were transferred to germination medium supplemented with different concentrations of TAA (0.1, 1, 2, 5, 10, 25, 50, and 100 μM) or NAA/IAA/IBA (0.05, 0.1, 1, 2 and 5 μM). For IBA, two additional concentrations (10 and 25 μM) were also analyzed. Seedlings grown on media supplemented with an equal volume of DMSO were used as control. The seedlings were allowed to grow for 6 days and the plates were photographed at 24 h intervals. Primary root length was measured using Image J software. The difference in the number of lateral roots (LR) and root hairs was visually observed. Microscopic images were taken on a Leica Thunder Imager System (Leica Microsystems Ltd., Switzerland) and the images were processed with LAS X software."}, "WT A. thaliana seedlings": {"tested_on": "WT A. thaliana seedlings", "experiment": "Root gravitropism of WT Arabidopsis seedlings (Experiment 8)", "type": "in vivo", "method": "as §1\nTo analyze the effect of TAA on gravitropism, WT A. thaliana seeds were cultured on 1/2 MS medium for 8 days. Uniform seedlings were then selected and vertically grown in germination medium supplemented with different concentrations of TAA (1, 2, 5, 10, and 25 μM) for 24 h. Seedlings grown on media supplemented with DMSO were used as control. The plates were then rotated clockwise 90° to make the root parallel to the ground. The seedlings were allowed to grow for 73 h and the plates were photographed at different intervals. Image J software was used to measure the curvature of 16 plants each in the control and treatment groups."}, "AtGH3.3 (AT2G23170)": {"tested_on": "AtGH3.3 (AT2G23170)", "experiment": "qRT-PCR of early auxin-responsive gene AtGH3.3 (Experiment 9)", "type": "in vivo, A. thaliana", "details": "5 and 10 μM TAA, concentration and time-dependent", "method": "(§2) To analyze TAA responsive genes in Arabidopsis, WT Arabidopsis seeds were germinated as described and 14-day-old uniform-looking seedlings were initially acclimatized in liquid germination medium for 2 hours before transferring to medium containing different concentrations of TAA (5 and 10 μM). Seedlings in media supplemented with DMSO were used as control. Five random seedlings were selected and considered as one sample and three samples from both control and treatments were flash frozen in liquid nitrogen and total RNA was isolated using a TRIzol reagent (ThermoFisher Scientific, Cat #15596026).\n(§3) Expression levels of seven previously reported early auxin-responsive genes were verified by qRT-PCR (quantitative reverse transcription polymerase chain reaction). RNA reverse transcription was performed using QuantiTect Reverse Transcription Kit (Qiagen). Three biological replicates and three technical replicates were used for all qRT-PCRs. Arabidopsis actin gene (AT3G18780) was used as internal reference."}, "AtLBD29, AT3G58190": {"tested_on": "AtLBD29, AT3G58190", "experiment": "qRT-PCR of early auxin-responsive gene AtLBD29 (Experiment 9)", "type": "in vivo, A. thaliana", "details": "5 and 10 μM TAA, both time points", "method": "as §2, §3"}, "AtARF19, AT1G19220": {"tested_on": "AtARF19, AT1G19220", "experiment": "qRT-PCR of early auxin-responsive gene AtARF19 (Experiment 9)", "type": "in vivo, A. thaliana", "details": "5 and 10 μM TAA, both time points", "method": "as §2, §3"}},
  "data": [
    {"compound": "O=C(O)Cc1ccsc1", "note": "[TAA]", "values": [
      {"measurement": "number of shoots regenerated per explant versus basic shoot regeneration media", "setting": "tobacco leaf explants; 1 mg/L TAA with 2 mg/L kinetin", "result": 3, "unit": "times"},
      {"measurement": "total number of shoots regenerated versus basic shoot regeneration media", "setting": "tobacco leaf explants; 1 mg/L TAA with 2 mg/L kinetin", "result": 3, "unit": "times"},
      {"measurement": "number of shoots regenerated per explant versus basic shoot regeneration media", "setting": "tobacco leaf explants; 2 mg/L TAA with 2 mg/L kinetin", "result": 3, "unit": "times"},
      {"measurement": "total number of shoots regenerated versus basic shoot regeneration media", "setting": "tobacco leaf explants; 2 mg/L TAA with 2 mg/L kinetin", "result": 3, "unit": "times"},
      {"measurement": "number of regenerated shoots versus basic shoot regeneration media", "setting": "tobacco leaf explants; 3 mg/L TAA with 2 mg/L kinetin", "result": "more than double"},
      {"measurement": "number of regenerated shoots versus basic shoot regeneration media", "setting": "tobacco leaf explants; 5 mg/L TAA with 2 mg/L kinetin", "result": "more than double"},
      {"measurement": "effect on shoot regeneration and size of regenerated shoots", "setting": "tobacco leaf explants; TAA added to 3% MS + 2 mg/L kinetin", "result": "positive effect"},
      {"measurement": "length of the primary root relative to control", "setting": "WT Arabidopsis seedlings; 50 μM, after 6 days of treatment, 8-day-old seedlings", "result": 50, "unit": "%"},
      {"measurement": "number and elongation of lateral roots (LR)", "setting": "WT Arabidopsis seedlings; higher concentrations (5 μM and above)", "result": "reduced the number of LR and inhibited the elongation of LR"},
      {"measurement": "effect on primary root length", "setting": "WT Arabidopsis seedlings; low concentration range (FIG. 8a)", "result": "promoter role"},
      {"measurement": "number of lateral roots (LR)", "setting": "WT Arabidopsis seedlings; lower concentrations of TAA", "result": "increased"},
      {"measurement": "growth angle of primary roots", "setting": "WT A. thaliana seedlings; 50 h after treatment (FIG. 8b)", "result": "~90", "unit": "°"},
      {"measurement": "growth angle of primary roots", "setting": "WT A. thaliana seedlings; higher concentrations (5, 10 and 25 μM)", "result": "did not show a marked change in growth angle"},
      {"measurement": "rate of gravitropic response", "setting": "WT A. thaliana seedlings; lower concentrations (1 and 2 μM), plates rotated 90°", "result": "enhanced the rate of gravitropic response"},
      {"measurement": "AtGH3.3 upregulation", "setting": "AtGH3.3 (AT2G23170)", "result": "over 70 fold"},
      {"measurement": "AtLBD29 expression", "setting": "AtLBD29, AT3G58190", "result": "upregulation"},
      {"measurement": "AtARF19 expression", "setting": "AtARF19, AT1G19220", "result": "upregulation"}
    ]}
  ]
}
